Columns and labels:
A2780 (Ovary) = assay: MTT antiproliferative assay, 72 h; format: cell-based; settings: read-out: IC50 values A2780 (Ovary), 72 h exposure, mean ± SDM, n = 3
SK-OV-3 (Ovary) = assay: MTT antiproliferative assay, 72 h; format: cell-based; settings: read-out: IC50 values SK-OV-3 (Ovary), 72 h exposure, mean ± SDM, n = 3
MDA-MB-231 (Breast) = assay: MTT antiproliferative assay, 72 h; format: cell-based; settings: read-out: IC50 values MDA-MB-231 (Breast), 72 h exposure, mean ± SDM, n = 3
HT-29 (Colon) = assay: MTT antiproliferative assay, 72 h; format: cell-based; settings: read-out: IC50 values HT-29 (Colon), 72 h exposure, mean ± SDM, n = 3
MCF-7 (Breast) = assay: MTT antiproliferative assay, 72 h; format: cell-based; settings: read-out: IC50 values MCF-7 (Breast), 72 h exposure, mean ± SDM, n = 3
Caco-2 (Colon) = assay: MTT antiproliferative assay, 72 h; format: cell-based; settings: read-out: IC50 values Caco-2 (Colon), 72 h exposure, mean ± SDM, n = 3
A2780 cells = assay: Cell cycle analysis by flow cytometry; format: cell-based; settings: 24 h, lower of two concentrations close to 24-h IC50
[1] = unsubstituted (lacking the N4 phenyl) compound; cited from earlier work

| IC50 (A2780 (Ovary)) | IC50 (SK-OV-3 (Ovary)) | IC50 (MDA-MB-231 (Breast)) | IC50 (HT-29 (Colon)) | IC50 (MCF-7 (Breast)) | IC50 (Caco-2 (Colon)) | Compound | cell cycle distribution at the lower concentration (A2780 cells) | pKa [1] |
| --- | --- | --- | --- | --- | --- | --- | --- | --- |
| 1.9 ± 0.1 µM | 9.5 ± 0.5 µM | 4.58 ± 0.03 µM | 2.3 ± 0.2 µM | 22.5 ± 0.3 µM | 3.9 ± 0.5 µM | CC(=O)N(O)CCCCCNC(=O)CCC(=O)N(O)CCCCCNC(=O)CCC(=O)N(O)CCCCCN [DFO] | a larger fraction of cells was able to proceed to the S phase but remained unable to reach the G2 phase | – |
| 1.9 ± 0.1 µM | 2.3 ± 0.2 µM | 4.8 ± 0.2 µM | 9.5 ± 0.5 µM | 1.74 ± 0.04 µM | 7.3 ± 0.8 µM | Oc1ccccc1C=NNC(=S)Nc1ccccc1 [STC1] | – | – |
| – | – | – | – | – | – | NC(=S)N/N=C/c1ccccc1O [salicylaldehyde thiosemicarbazone] | – | 8.8 |

Reference: paper PMC10188280 (Inorganic chemistry, 2022)
